Laboratory results: ChEMBL document CHEMBL1649363, “Nitropyrrolins A-E, cytotoxic farnesyl-α-nitropyrroles from a marine-derived bacterium within the actinomycete family Streptomycetaceae” (J Nat Prod, 2010)
≈ marks a conversion by molar mass, not a printed value.

Columns and labels:
Staphylococcus aureus = assay: Antibacterial activity against methicillin-resistant Staphylococcus aureus; format: functional
HCT-116 = assay: Cytotoxicity against human HCT116 cells; format: functional, cell-based
[1] = Homo sapiens, HCT-116, read-out: IC50

SMILES	MIC (Staphylococcus aureus) [mg/L]	IC50 (HCT-116; [1]) [µM]	IC50 (HCT-116; hct-116)
CC(C)=CCC/C(C)=C\CC/C(C)=C\Cc1cc[nH]c1	2.8 (≈ 10.3 µM)	13.7	–
CC(C)=CCC/C(C)=C\CC/C(C)=C\Cc1c[nH]c([N+](=O)[O-])c1	> 20	9.2	–
O=[N+]([O-])c1ccc[nH]1	> 20	–	Not Active
O=[N+]([O-])c1cc[nH]c1	> 20	–	Not Active
CC(C)=CCC/C(C)=C\CC/C(C)=C\Cc1ccc[nH]1	> 20	24.4	–
CC(C)=CCC/C(C)=C/CC[C@](C)(O)[C@H](O)Cc1c[nH]c([N+](=O)[O-])c1 [NITROPYRROLIN A]	> 20	31.1	–
CC(C)=CCC/C(C)=C/CC[C@@]1(C)O[C@@H]1Cc1c[nH]c([N+](=O)[O-])c1 [NITROPYRROLIN B]	> 20	31	–
CC(C)=CCC/C(C)=C/CC[C@@](C)(Cl)[C@H](O)Cc1c[nH]c([N+](=O)[O-])c1 [NITROPYRROLIN C]	> 20	–	Not Active
CC(C)=CCC/C(C)=C/C/C=C(\C)[C@H](O)Cc1c[nH]c([N+](=O)[O-])c1 [NITROPYRROLIN D]	> 20	5.7	–
C/C(=C\CC[C@@](C)(Cl)[C@H](O)Cc1c[nH]c([N+](=O)[O-])c1)CC[C@@H](O)C(C)(C)O [NITROPYRROLIN E]	> 20	–	Not Active
